In patent US8796244B2, “Imidazopyridine derivatives as inhibitors of receptor tyrosine kinases” (Astex Therapeutics Ltd, priority 2008, dated 2014):
pIC50: −log10 of the molar value. Structures can show the parent of a compound that is named as a salt. Where two headings read alike, the source gives them in different places.

Key:
[1] = tested on: Ba/F3-TEL-FGFR3 cells; experiment: Ba/F3-TEL-FGFR3 cell proliferation assay (Alamar Blue); format: cell-based; details: for IC50: 72 h, read-out: BaF3-TEL-FGFR3 prolif (μM); for pIC50: 72 hours, Alamar Blue, read-out: BaF3-TEL-FGFR3 prolif
[2] = tested on: parental wild-type Ba/F3 cells; experiment: Ba/F3 (WT) cell proliferation assay (Alamar Blue); format: cell-based; details: Mus musculus; for IC50: BaF3, 72 h, read-out: BaF3 WT prolif (μM); for inhibition at 10 µM / pIC50: BaF3; for inhibition at 10 µM: read-out: BaF3 WT prolif, % inhibition; for pIC50: 72 hours, Alamar Blue, read-out: BaF3 WT prolif
[3] = tested on: LP-1 cell line (FGF-1/Heparin induced pERK); experiment: Cell-based pERK ELISA, LP-1 cells; details: Homo sapiens, LP-1, read-out: LP-1 pERK ELISA (μM)
[4] = molecular target: FGFR3 (Homo sapiens (Human), UniProt P22607); experiment: FGFR3 in vitro kinase inhibitory activity assay (TRF); details: 3 h, read-out: FGFR3 % I
FGFR3, sequence (P22607 23-806): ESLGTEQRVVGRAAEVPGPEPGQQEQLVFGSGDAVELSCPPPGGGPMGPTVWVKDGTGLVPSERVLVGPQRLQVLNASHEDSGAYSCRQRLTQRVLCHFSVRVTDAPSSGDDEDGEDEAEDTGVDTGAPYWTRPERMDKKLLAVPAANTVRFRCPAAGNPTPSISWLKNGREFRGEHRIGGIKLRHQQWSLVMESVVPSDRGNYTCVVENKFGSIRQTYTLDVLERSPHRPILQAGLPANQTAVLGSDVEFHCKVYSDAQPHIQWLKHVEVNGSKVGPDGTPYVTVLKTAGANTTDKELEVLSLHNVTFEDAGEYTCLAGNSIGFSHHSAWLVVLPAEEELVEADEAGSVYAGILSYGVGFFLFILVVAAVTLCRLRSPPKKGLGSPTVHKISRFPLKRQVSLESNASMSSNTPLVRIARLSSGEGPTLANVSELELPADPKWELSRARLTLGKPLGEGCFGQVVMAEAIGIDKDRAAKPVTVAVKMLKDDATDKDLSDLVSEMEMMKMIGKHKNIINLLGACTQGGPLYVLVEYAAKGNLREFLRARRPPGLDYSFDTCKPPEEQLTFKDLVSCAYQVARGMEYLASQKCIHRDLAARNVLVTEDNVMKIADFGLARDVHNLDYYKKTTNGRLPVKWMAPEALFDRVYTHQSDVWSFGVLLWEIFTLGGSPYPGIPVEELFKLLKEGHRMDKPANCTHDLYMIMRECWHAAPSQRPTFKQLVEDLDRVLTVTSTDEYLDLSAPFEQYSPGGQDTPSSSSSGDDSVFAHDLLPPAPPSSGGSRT

[5] = molecular target: VEGFR2 (Homo sapiens (Human), UniProt P35968); experiment: VEGFR2 in vitro kinase inhibitory activity assay (TRF, Flt3 substrate); format: biochemical
VEGFR2, sequence (P35968 20-1356): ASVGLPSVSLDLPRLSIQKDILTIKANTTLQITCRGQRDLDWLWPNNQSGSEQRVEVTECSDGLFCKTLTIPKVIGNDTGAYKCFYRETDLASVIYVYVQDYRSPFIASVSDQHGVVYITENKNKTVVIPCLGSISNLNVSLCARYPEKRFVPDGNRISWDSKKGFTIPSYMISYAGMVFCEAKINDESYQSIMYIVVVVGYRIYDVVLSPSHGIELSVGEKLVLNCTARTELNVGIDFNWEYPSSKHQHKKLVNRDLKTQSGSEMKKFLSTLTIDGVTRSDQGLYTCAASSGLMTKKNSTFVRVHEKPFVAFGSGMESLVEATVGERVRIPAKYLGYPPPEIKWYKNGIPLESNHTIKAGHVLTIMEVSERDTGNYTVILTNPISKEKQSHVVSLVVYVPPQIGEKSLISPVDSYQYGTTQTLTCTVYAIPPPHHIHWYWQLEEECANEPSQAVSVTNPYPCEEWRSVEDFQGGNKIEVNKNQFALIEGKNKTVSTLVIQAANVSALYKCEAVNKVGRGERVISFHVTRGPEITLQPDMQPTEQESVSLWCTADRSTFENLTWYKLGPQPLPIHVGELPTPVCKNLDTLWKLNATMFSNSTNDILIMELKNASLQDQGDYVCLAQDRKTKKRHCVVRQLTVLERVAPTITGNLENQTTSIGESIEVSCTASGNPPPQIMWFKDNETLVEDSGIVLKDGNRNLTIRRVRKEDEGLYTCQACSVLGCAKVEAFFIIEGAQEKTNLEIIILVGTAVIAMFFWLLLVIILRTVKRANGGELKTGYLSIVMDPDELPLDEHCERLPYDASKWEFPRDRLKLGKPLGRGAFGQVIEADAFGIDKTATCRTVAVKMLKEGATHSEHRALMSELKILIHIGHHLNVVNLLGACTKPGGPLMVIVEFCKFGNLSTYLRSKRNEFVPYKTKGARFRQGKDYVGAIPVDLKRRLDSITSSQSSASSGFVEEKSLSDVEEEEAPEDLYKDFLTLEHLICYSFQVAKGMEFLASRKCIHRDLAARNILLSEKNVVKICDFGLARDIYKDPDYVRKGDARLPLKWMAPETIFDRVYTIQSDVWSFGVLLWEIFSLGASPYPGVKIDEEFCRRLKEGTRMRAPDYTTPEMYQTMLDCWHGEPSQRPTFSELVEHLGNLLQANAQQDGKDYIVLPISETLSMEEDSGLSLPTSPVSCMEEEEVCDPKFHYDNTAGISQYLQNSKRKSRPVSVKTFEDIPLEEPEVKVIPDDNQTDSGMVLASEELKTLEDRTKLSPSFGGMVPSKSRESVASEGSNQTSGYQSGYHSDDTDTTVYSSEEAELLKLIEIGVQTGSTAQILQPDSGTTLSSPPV

[6] = BaF3, read-out: BaF3 WT prolif, % inhibition

SMILES | IC50 [3] | pIC50 [1] | pIC50 [2] | further results
CC(=O)N1CCC(n2cc(-c3ccn4c(-c5cccc(NC(=O)NCC(F)(F)F)c5)cnc4c3)cn2)CC1 [Example 63, 1-(3-{7-[1-(1-Acetyl-piperidin-4-yl)-1H-pyrazol-4-yl]-imidazo[1,2-a]pyridin-3-yl}-phenyl)-3-(2,2,2-trifluoro-ethyl)-urea formate] | 0.05 µM |  |  | IC50 [1]: 0.092 µM; IC50 [2]: 1.4 µM; inhibition at 0.0003 µM [4]: 50.5%
O=C(NCC(F)(F)F)Nc1cccc(-c2cnc3cc(-c4ccc(NC5CCOCC5)nn4)ccn23)c1 [Example 66, 1-(3-{7-[6-(Tetrahydro-pyran-4-ylamino)-pyridazin-3-yl]-imidazo[1,2-a]pyridin-3-yl}-phenyl)-3-(2,2,2-trifluoro-ethyl)-urea bis-hydrochloride] | 0.069 µM |  |  | IC50 [1]: 0.046 µM; IC50 [2]: 1.9 µM; inhibition at 0.0003 µM [4]: 43%
CCN(CC)CCNC(=O)C(C)(C)n1cc(-c2ccn3c(-c4cccc(NC(=O)NCC(F)(F)F)c4)cnc3c2)cn1 [Example 68, N-(2-Diethylamino-ethyl)-2-[4-(3 {3-[3-(2,2,2-trifluoro-ethyl)-ureido]-phenyl}-imidazo[1,2-a]pyridin-7-yl)-pyrazol-1-yl]-isobutyramide] | 0.53 µM | 5.82 |  | inhibition at 10 µM [2]: 36%
CC(C)(C(=O)N1CCC1)n1cc(-c2ccn3c(-c4cccc(NC(=O)NCC(F)(F)F)c4)cnc3c2)cn1 [Example 73, 1-(3-{7-[1-(2-Azetidin-1-yl-1,1-dimethyl-2-oxo-ethyl)-1H-pyrazol-4-yl]-imidazo[1,2-a]pyridin-3-yl}-phenyl)-3-(2,2,2-trifluoro-ethyl)-urea] | 0.12 µM | 6.89 | 5.43 | inhibition at 0.001 µM [4]: 60%
CS(=O)(=O)N1CCC(n2cc(-c3ccn4c(-c5cccc(NC(=O)NCC(F)(F)F)c5)cnc4c3)cn2)CC1 [Example 74, 1-(3-{7-[1-(1-Methanesulfonyl-piperidin-4-yl)-1H-pyrazol-4-yl]-imidazo [1,2-a]pyridin-3-yl}-phenyl)-3-(2,2,2-trifluoro-ethyl)-urea] | 0.018 µM | 7.02 | 6.09 | inhibition at 0.0003 µM [4]: 51.5%
Cc1noc(C)c1C#Cc1ccn2c(-c3cccc(NC(=O)NCC(F)(F)F)c3)cnc2c1 [Example 112, 1-{3-[7-(3,5-Dimethyl-isoxazol-4-ylethynyl)-imidazo[1,2-a]pyridin-3-yl]-phenyl}-3-(2,2,2-trifluoro-ethyl)-urea trifluoroacetate] |  |  |  | inhibition at 0.3 µM [4]: 49%
O=C(NCC(F)(F)F)Nc1cccc(-c2cnc3cc(-c4ccc(O)cn4)ccn23)c1 [Example 202] |  | 6.59 |  | inhibition at 1 µM [2, 6]: 21%; inhibition at 0.001 µM [4]: 46%
O=C(NCC(F)(F)F)Nc1cccc(-c2cnc3cc(-c4ccnc(-n5ccnc5)n4)ccn23)c1 [Example 215] |  | 5.06 | 5.00 | pIC50 ([5]; […]): < 5.00; inhibition at 0.1 µM [4]: 39%
CNC(=O)c1ccc(-c2ccn3c(-c4cccc(NC(=O)NCC(F)(F)F)c4)cnc3c2)nc1 [Example 224] |  | 7.48 |  | inhibition at 3 µM [2, 6]: 16%; inhibition at 0.001 µM [4]: 61%
CCNC(=O)Nc1cccc(-c2cnc3cc(-c4ncc(OC)cn4)ccn23)c1 [Example 230] |  | 7.05 | 6.80 | inhibition at 0.003 µM [4]: 49%
CCNC(=O)Nc1cccc(-c2cnc3cc(-c4nnc(C(F)(F)F)s4)ccn23)c1 [Example 236] |  |  |  | inhibition at 0.31 µM [4]: 46%

The next lines start with results.

IC50 [3] | pIC50 [1] | SMILES | pIC50 [2] | further results
0.096 µM | 6.59 | CNC(=O)C(C)(C)n1cc(-c2ccn3c(-c4cccc(NC(=O)NCC(F)(F)F)c4)cnc3c2)cn1 [Example 69, N-Methyl-2-[4-(3-{3-[3-(2,2,2-trifluoro-ethyl)-ureido]-phenyl}-imidazo[1,2-a]pyridin-7-yl)-pyrazol-1-yl]-isobutyramide] | 5.34 | 
0.3 µM | 6.12 | CC(C)(C(N)=O)n1cc(-c2ccn3c(-c4cccc(NC(=O)NCC(F)(F)F)c4)cnc3c2)cn1 [Example 72, 2-[4-(3-{3-[3-(2,2,2-Trifluoro-ethyl)-ureido]-phenyl}-imidazo[1,2-a]pyridin-7-yl)-pyrazol-1-yl]-isobutyramide] |  | inhibition at 10 µM [2]: 32%
 | 7.12 | CNc1cc(-c2ccn3c(-c4cccc(NC(=O)NCC(F)(F)F)c4)cnc3c2)ncn1 [Example 195] | 5.30 | inhibition at 0.00097 µM [4]: 66%
 | 6.49 | O=C(NCC(F)(F)F)Nc1cccc(-c2cnc3cc(-c4ccc(C(F)(F)F)nn4)ccn23)c1 [Example 229] | 5.26 | inhibition at 0.3 µM ([5]; 1 h, at 0.3 μM, read-out: VEGFR2 % I): 59%; inhibition at 0.03 µM [4]: 67%
 | 7.35 | O=C(NCC(F)(F)F)Nc1cccc(-c2cnc3cc(-c4cnc(C(F)(F)F)nc4)ccn23)c1 [Example 232] | 6.22 | inhibition at 0.001 µM [4]: 45%
